In patent publication US6737383B1, “Herbicidal oxadiazolidines” (priority 1999, dated 2004):

How the values were obtained:
purple nutsedge = test: Test B pre/postemergence purple nutsedge; format: in vivo, Cyperus rotundus; conditions: Preemergence, Rate 125 g/ha; scale of 0 to 10 where 0 is no effect and 10 is complete control
In short: (§1)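 Herbicidal effect was estimated by eye on a ten-point control scale after plants spent twelve to sixteen days in a greenhouse following soil or foliar treatment. Foliar sprays targeted plants at one to four leaves; all doses were formulated in a non-phytotoxic solvent with surfactant.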

blackgrass = test: Test B pre/postemergence blackgrass; format: in vivo, Alopecurus myosuroides; conditions: Preemergence
In short: as §1

crabgrass = test: Test B pre/postemergence crabgrass; format: in vivo, Digitaria sanguinalis; conditions: Preemergence
In short: as §1

morningglory = test: Test B pre/postemergence morningglory; format: in vivo, Ipomoea hederacea; conditions: Preemergence
In short: as §1

cocklebur = test: Test B pre/postemergence cocklebur; format: in vivo, Xanthium strumarium; conditions: Preemergence
In short: as §1

velvetleaf = test: Test B pre/postemergence velvetleaf; format: in vivo, Abutilon theophrasti; conditions: Preemergence
In short: as §1

surinam grass = test: Test B pre/postemergence surinam grass; format: in vivo, Brachiaria decumbens; conditions: Preemergence
In short: as §1

rape = test: Test B pre/postemergence rape; format: in vivo, Brassica napus; conditions: Preemergence
In short: as §1

corn = test: Test B pre/postemergence corn; format: in vivo, Zea mays; conditions: Preemergence
In short: as §1

pigweed = test: Test B pre/postemergence pigweed; format: in vivo, Amaranthus retroflexus; conditions: Preemergence
In short: as §1

wheat = test: Test B pre/postemergence wheat; format: in vivo, Triticum aestivum; conditions: Preemergence
In short: as §1

giant foxtail = test: Test B pre/postemergence giant foxtail; format: in vivo, Setaria faberii; conditions: Preemergence
In short: as §1

bedstraw = test: Test B pre/postemergence bedstraw; format: in vivo, Galium aparine; conditions: Preemergence
In short: as §1

soybean = test: Test B pre/postemergence soybean; format: in vivo, Glycine max; conditions: Preemergence
In short: as §1

wild oat = test: Test B pre/postemergence wild oat; format: in vivo, Avena fatua; conditions: Preemergence
In short: as §1

sugar beet = test: Test B pre/postemergence sugar beet; format: in vivo, Beta vulgaris; conditions: Preemergence
In short: as §1

[1] = Rate 125 g/ha, scale of 0 to 10 where 0 is no effect and 10 is complete control
[2] = Rate 250 g/ha, scale 0 to 10 (0 no effect, 10 complete control)
[3] = Rate 500 g/ha, scale of 0 to 10 where 0 is no effect and 10 is complete control
[4] = Rate 1000 g/ha, scale 0 to 10 (0 no effect, 10 complete control)

COP(=O)(CCn1c(=O)on(C(=O)N(c2ccc(Cl)cc2)C(C)C)c1=O)OC [Compound 698]
Plant response rating, Nutsedge (purple nutsedge): 0
Plant response rating, Blackgrass (blackgrass; [1]): 0
Plant response rating, Blackgrass (blackgrass; [2]): 2
Plant response rating, Blackgrass (blackgrass; [3]): 8
Plant response rating, Blackgrass (blackgrass; [4]): 9
Plant response rating, Crabgrass (crabgrass; [1]): 3
Plant response rating, Crabgrass (crabgrass; [2]): 8
Plant response rating, Crabgrass (crabgrass; [4]): 9
Plant response rating, Morningglory (morningglory; [1]): 0
Plant response rating, Morningglory (morningglory; [4]): 0
Plant response rating, Cocklebur (cocklebur; [1]): 0
Plant response rating, Cocklebur (cocklebur; [2]): 0
Plant response rating, Cocklebur (cocklebur; [3]): 0
Plant response rating, Cocklebur (cocklebur; [4]): 0
Plant response rating, Velvetleaf (velvetleaf; [1]): 0
Plant response rating, Velvetleaf (velvetleaf; [4]): 0
Plant response rating, B. signalgrass (surinam grass; [1]): 0
Plant response rating, B. signalgrass (surinam grass; [2]): 3
Plant response rating, B. signalgrass (surinam grass; [3]): 5
Plant response rating, B. signalgrass (surinam grass; [4]): 4
Plant response rating, Rape (rape; [1]): 0
Plant response rating, Rape (rape; [4]): 8
Plant response rating, Corn (corn; [1]): 0
Plant response rating, Corn (corn; [2]): 0
Plant response rating, Corn (corn; [4]): 0
Plant response rating, Redroot pigweed (pigweed; [1]): 0
Plant response rating, Redroot pigweed (pigweed; [4]): 0
Plant response rating, Wheat (wheat; [1]): 0
Plant response rating, Wheat (wheat; [4]): 6
Plant response rating, Giant foxtail (giant foxtail; [1]): 0
Plant response rating, Giant foxtail (giant foxtail; [4]): 10
Plant response rating, Bedstraw (bedstraw; [1]): 0
Plant response rating, Bedstraw (bedstraw; [2]): 0
Plant response rating, Bedstraw (bedstraw; [3]): 0
Plant response rating, Bedstraw (bedstraw; [4]): 0
Plant response rating, Soybean (soybean; [1]): 0
Plant response rating, Soybean (soybean; [4]): 3
Plant response rating, Wild oats (wild oat; [1]): 0
Plant response rating, Wild oats (wild oat; [4]): 10
Plant response rating, Sugarbeets (sugar beet; [1]): 0
Plant response rating, Sugarbeets (sugar beet; [4]): 0
